# According to patent publication US5432165A, “Methods for the treatment of infection caused by Hepatitis B virus (HBV)” (priority 1992, dated 1995):
# “Also recorded” adds a separate entry of the source.
# Assay: clinical
# Procedure: Tolerance to the oral formulation of FIAU was evaluated in relatively healthy HIV-infected patients with Karnofsky performance scores ≥80 and ≥200 CD4 cells/mm^3. Sequential cohorts of ten patients were evaluated in an open and uncontrolled study design. […] Tolerance was determined with concurrent anti-emetic therapy (prochlorperazine or metoclopramide hydrochloride) as necessary for each patient.
# This study is an open label, uncontrolled trial. […] Tolerated doses could be studied in an additional five patient cohort of chronic hepatitis B patients, who were potentially more at risk of side effects. A month of post-treatment follow-up was provided for the hepatitis cohorts due to the known propensity of this disease to "flare" after therapy.
# Although not formally randomized, qualified patients were to be consecutively enrolled without regard to their disease severity, expected tolerance, or potential benefit of the dose being evaluated. Tolerance to a dose was defined as seven or more of the ten patients in a cohort individually meeting predefined tolerance criteria including successful completion of therapy and limits on changes in particular signs, symptoms and laboratory tests. Tolerance was determined with concurrent anti-emetic therapy for those patients requiring it. Criteria and regimens for such therapy were predefined.
# Weight loss was restricted to less than 10% in the past three months and serum CPK was required to be within the normal range.
# Patients were evaluated clinically at the screening visit, and on Days 1, 3, 7, 10, and 14. The hepatitis patients were additionally evaluated on Days 21 and 42. The blood chemistry and urinalysis tests were repeated additionally on Days 2 and 5.
# Clinical evaluations consisted of a physical exam, which included a test of lower extremity muscle strength, medical history, systems review, grading of non-laboratory signs and symptoms of toxicity, and listing of concomitant medications. Additionally, at visits with clinical evaluations after Day 1, any adverse experiences were recorded.
# At the screening visit a chest x-ray, electrocardiogram (ECG), HIV test, T cell profile (CD4 and CD8 counts), serum biochemistry, hematology, urinalysis and stool guaiac tests were obtained in addition to the clinical evaluation. Hematology tests consisted of hemoglobin, hematocrit, RBC, WBC and differential, platelet, reticulocyte count, MCV, MCHC and MCH. Urinalysis tests consisted of color, appearance, pH, specific gravity, bilirubin, protein, glucose, myoglobin, RBCs, WBCs, casts, crystals and bacteria. Serum biochemistry tests consisted of creatinine, uric acid, BUN, total bilirubin, AST, ALT, alkaline phosphatase, LDH, CPK, CPK-MB, glucose, total protein, albumin, globulin, calcium, phosphorus, potassium, sodium, chloride, bicarbonate and aldolase.
# The Baseline visit (Day 1) consisted of repeating the clinical evaluation, hematology, serum biochemistry, urinalysis, and stool guaiac tests, and T cell profile. Additionally at Baseline, archive plasma samples were taken. Plasma samples were taken two hours after each patient's first dose of FIAU (peak) and right before the second dose (trough). Thereafter, on Days 3, 7 and 14 additional peak and trough samples were obtained by taking the trough sample just before a patient took a dose of FIAU and the peak sample two hours later. These samples were analyzed by HPLC for levels of FIAU and FAU as low as 0.05 μg/ml for either compound.
# The Day 3 safety profile consisted of the clinical evaluation, hematology, serum biochemistry, urinalysis, stool guaiac tests and plasma samples for peak and trough levels of FIAU and its major metabolite FAU. On Day 7 patients underwent clinical evaluation, an ECG, peak and trough serum samples, T cell profile, and hematology, serum biochemistry, urinalysis, and stool guaiac tests. A clinical evaluation, hematology, serum biochemistry, and urinalysis tests were done on Day 10.
# [1] = 1.0 mg/kg-day, non-hepatitis patients, p>0.07
# [2] = 1.0 mg/kg-day, ten non-hepatitis patients
smiles,measurement,setting,value
"O=c1[nH]c(=O)n([C@@H]2O[C@H](CO)[C@@H](O)[C@@H]2F)cc1I [FIAU, 1-(2'-deoxy-2'-fluoro-β-D-arabinofuranosyl)-5-iodouracil]",tolerance of oral FIAU,"1.0 mg/kg-day TID 14 days, HIV-infected patients (ten without chronic hepatitis B)",adequately tolerated
same,average AST value at end of therapy,"1.0 mg/kg-day, non-hepatitis patients, baseline 23.4, p≤0.02",29.6
same,average ALT value at end of therapy,"1.0 mg/kg-day, non-hepatitis patients, baseline 27.1, p≤0.02",42.3
same,average WBC count at end of therapy,"1.0 mg/kg-day, non-hepatitis patients, baseline average 5,480, p=0.0746","4,920 cells/mm^3"
same,average loss of CD4 cells,"1.0 mg/kg-day, non-hepatitis patients, non-significant",64 cells/mm^3
same,decrease in lymphocytes,[1],about 300 cells/mm^3
same,decrease in neutrophils,[1],about 300 cells/mm^3
same,patients requiring anti-emetic therapy,[2],four required anti-emetic therapy
same,patients with mild to moderate headache,[2],Five patients complained of mild to moderate headache
same,patients with mild to moderate nausea,[2],Eight patients experienced mild to moderate nausea
same,tolerance of oral FIAU,"1.7 mg/kg-day, three non-hepatitis patients",not tolerated; also recorded: All three discontinued the study after two to eight days due to severe fatigue
same,MTD at 336 h,"human, in vivo, po, maximum tolerated dose of oral FIAU, HIV-infected population, TID for two weeks",≥ 1 mg/kg/day
